From PubChem BioAssay AID250 (DTP/NCI, 2004)
Values joined by “and” are separate entries in the source; they are usually repeats but may differ in a detail not shown here. Equal entries are not always repeated. Toxic doses and inconclusive results are not listed. How the source made its calls: active means survival T/C of 150% or more; inactive means T/C below 125% in these data.

Tested on: BDF1 mice, L1210 leukemia sc, survival T/C
Test: NCI In Vivo Anticancer Drug Screen. Data for tumor model L1210 Leukemia (subcutaneous) in B6D2F1 (BDF1) mice
Conditions: endpoint: median survival time, higher = longer survival
Description: The antitumor activity of compounds was measured in mice bearing transplantable tumors. Survival or tumor size were measured and the results are expressed as the measurement made in the treated group (T) divided by the measurement made in the vehicle treated control group (C). The tumor model used in this assay is L1210 Leukemia (subcutaneous) in B6D2F1 (BDF1) mice

[1] = dose: 23.0 mg/kg/injection, schedule: Q01DX Z (sc), vehicle: methylcellulose (MC)

Measured: T/C

Nc1nncs1
inactive: dose: 50.0 mg/kg/injection, schedule: Q04DX004 (sc), vehicle: water 111 % of control | dose: 100.0 mg/kg/injection, schedule: Q04DX004 (sc), vehicle: water 101 % of control | dose: 200.0 mg/kg/injection, schedule: Q04DX004 (sc), vehicle: water 106 % of control | dose: 200.0 mg/kg/injection, schedule: Q08DX003 (sc), vehicle: water 101 % of control | dose: 400.0 mg/kg/injection, schedule: Q04DX004 (sc), vehicle: water 111 % of control | dose: 400.0 mg/kg/injection, schedule: Q08DX003 (sc), vehicle: water 108 % of control | dose: 800.0 mg/kg/injection, schedule: Q08DX003 (sc), vehicle: water 109 % of control | dose: 1600.0 mg/kg/injection, schedule: Q08DX003 (sc), vehicle: water 117 % of control

COc1cccc2c1C(=O)c1c(O)c3c(c(O)c1C2=O)C[C@@](O)(C(=O)CO)C[C@@H]3OC1CC(N)C(O)C(C)O1 (stereo partly specified)
inactive: dose: 0.39 mg/kg/injection, schedule: Q03HX008 (ip), vehicle: water 88 % of control | dose: 0.39 mg/kg/injection, schedule: Q03HX008 (sc), vehicle: water 100 % of control | dose: 0.65 mg/kg/injection, schedule: Q01DX005 (ip), vehicle: water 95 % of control | dose: 0.65 mg/kg/injection, schedule: Q01DX005 (sc), vehicle: water 95 % of control | dose: 0.65 mg/kg/injection, schedule: Q03HX008 (ip), vehicle: water 100 % of control (2×) and 111 % of control | dose: 1.0 mg/kg/injection, schedule: Q04DX003 (ip), vehicle: saline 92 % of control | dose: 1.08 mg/kg/injection, schedule: Q01DX005 (ip), vehicle: water 95 % of control | dose: 1.08 mg/kg/injection, schedule: Q01DX005 (sc), vehicle: water 100 % of control | dose: 1.08 mg/kg/injection, schedule: Q03HX008 (ip), vehicle: water 100 % of control and 105 % of control and 111 % of control | dose: 1.8 mg/kg/injection, schedule: Q01DX005 (ip), vehicle: water 100 % of control | dose: 1.8 mg/kg/injection, schedule: Q01DX005 (sc), vehicle: water 110 % of control | dose: 1.8 mg/kg/injection, schedule: Q03HX008 (ip), vehicle: water 111 % of control | dose: 1.8 mg/kg/injection, schedule: Q04DX003 (sc), vehicle: water 111 % of control | dose: 2.0 mg/kg/injection, schedule: Q04DX003 (ip), vehicle: saline 94 % of control | dose: 3.0 mg/kg/injection, schedule: Q01DX001 (sc), vehicle: water 111 % of control | dose: 3.0 mg/kg/injection, schedule: Q01DX005 (sc), vehicle: water 110 % of control | dose: 3.0 mg/kg/injection, schedule: Q04DX003 (sc), vehicle: water 116 % of control | dose: 4.0 mg/kg/injection, schedule: Q04DX003 (ip), vehicle: saline 92 % of control | dose: 5.0 mg/kg/injection, schedule: Q01DX001 (iv), vehicle: water 111 % of control and 115 % of control | dose: 5.0 mg/kg/injection, schedule: Q01DX001 (sc), vehicle: water 111 % of control | dose: 5.0 mg/kg/injection, schedule: Q04DX003 (sc), vehicle: water 122 % of control | dose: 8.0 mg/kg/injection, schedule: Q04DX003 (ip), vehicle: saline 91 % of control | dose: 8.4 mg/kg/injection, schedule: Q01DX001 (iv), vehicle: water 122 % of control | dose: 14.0 mg/kg/injection, schedule: Q01DX001 (sc), vehicle: water 111 % of control | dose: 14.0 mg/kg/injection, schedule: Q04DX003 (sc), vehicle: water 94 % of control | dose: 23.0 mg/kg/injection, schedule: Q01DX001 (iv), vehicle: water 67 % of control

CNC=O
inactive: dose: 112.0 mg/kg/injection, schedule: Q01DX Z (sc), vehicle: saline 100 % of control | dose: 187.0 mg/kg/injection, schedule: Q01DX Z (sc), vehicle: saline 104 % of control | dose: 311.0 mg/kg/injection, schedule: Q01DX Z (sc), vehicle: saline 116 % of control

CS(=O)(=O)OCCCCOS(C)(=O)=O
inactive: dose: 6.25 mg/kg/injection, schedule: Q01DX009 (ip), vehicle: Klucel (hydroxypropylcellulose) (HPC) 93 % of control | dose: 6.25 mg/kg/injection, schedule: Q01DX009 (sc), vehicle: Klucel (hydroxypropylcellulose) (HPC) 97 % of control | dose: 12.5 mg/kg/injection, schedule: Q01DX009 (ip), vehicle: Klucel (hydroxypropylcellulose) (HPC) 103 % of control | dose: 12.5 mg/kg/injection, schedule: Q01DX009 (sc), vehicle: Klucel (hydroxypropylcellulose) (HPC) 96 % of control | [1] 103 % of control | dose: 25.0 mg/kg/injection, schedule: Q01DX009 (ip), vehicle: Klucel (hydroxypropylcellulose) (HPC) 106 % of control | dose: 25.0 mg/kg/injection, schedule: Q01DX009 (sc), vehicle: Klucel (hydroxypropylcellulose) (HPC) 105 % of control | dose: 47.0 mg/kg/injection, schedule: Q01DX Z (sc), vehicle: methylcellulose (MC) 105 % of control | dose: 50.0 mg/kg/injection, schedule: Q01DX009 (ip), vehicle: Klucel (hydroxypropylcellulose) (HPC) 101 % of control | dose: 50.0 mg/kg/injection, schedule: Q01DX009 (sc), vehicle: Klucel (hydroxypropylcellulose) (HPC) 96 % of control | dose: 65.0 mg/kg/injection, schedule: Q01DX Z (sc), vehicle: methylcellulose (MC) 96 % of control | dose: 78.0 mg/kg/injection, schedule: Q01DX Z (sc), vehicle: methylcellulose (MC) 110 % of control | dose: 108.0 mg/kg/injection, schedule: Q01DX Z (sc), vehicle: methylcellulose (MC) 96 % of control | dose: 130.0 mg/kg/injection, schedule: Q01DX Z (sc), vehicle: methylcellulose (MC) 100 % of control | dose: 180.0 mg/kg/injection, schedule: Q01DX Z (sc), vehicle: methylcellulose (MC) 103 % of control | dose: 300.0 mg/kg/injection, schedule: Q01DX Z (sc), vehicle: methylcellulose (MC) 100 % of control

O=c1nc2[nH]c(=O)[nH]c(=O)c2n[nH]1
inactive: dose: 10.0 mg/kg/injection, schedule: Q01DX Z (sc), vehicle: saline 100 % of control | dose: 28.0 mg/kg/injection, schedule: Q01DX Z (sc), vehicle: saline 100 % of control | dose: 47.0 mg/kg/injection, schedule: Q01DX Z (sc), vehicle: saline 100 % of control | dose: 78.0 mg/kg/injection, schedule: Q01DX Z (sc), vehicle: saline 100 % of control

COc1cc([C@@H]2c3cc4c(cc3[C@H](O)[C@H]3COC(=O)[C@H]23)OCO4)cc(OC)c1OC
inactive: dose: 5.0 mg/kg/injection, schedule: Q01DX Z (sc), vehicle: methylcellulose (MC) 109 % of control | dose: 8.4 mg/kg/injection, schedule: Q01DX Z (sc), vehicle: methylcellulose (MC) 109 % of control | dose: 14.0 mg/kg/injection, schedule: Q01DX Z (sc), vehicle: methylcellulose (MC) 104 % of control | [1] 109 % of control
